Counter-ions that a name gives are not always drawn.
How the values were obtained:
Format in all cases: biochemical
Conditions in all cases: FDA-approved drug screen; compared to DMSO
[1] = target: T1, recombinant PRL-2 (Homo sapiens, UniProt Q12974); assay: In vitro phosphatase assay (DiFMUP hydrolysis), PRL-2;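 note: PRL-2 activity read as DiFMUP hydrolysis after 20 min at room temperature with drug, enzyme first pre-reduced at 4 °C for 20 min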
T1 construct: 6xHis (N, cleaved yes); made in house; host or cells: E. coli One Shot BL21 Star
T1 sequence (Q12974 1-167): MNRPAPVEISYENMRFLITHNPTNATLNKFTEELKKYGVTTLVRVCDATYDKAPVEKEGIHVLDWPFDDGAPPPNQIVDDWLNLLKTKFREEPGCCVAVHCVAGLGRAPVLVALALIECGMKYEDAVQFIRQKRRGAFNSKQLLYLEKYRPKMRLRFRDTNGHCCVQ

[2] = target: T2, recombinant PRL-3 (Homo sapiens, UniProt O75365); assay: In vitro phosphatase assay (DiFMUP hydrolysis), PRL-3; note: test concentration or dose not given here
T2 construct: 6xHis (N, cleaved yes); made in house; host or cells: E. coli One Shot BL21 Star

[3] = target: T3, recombinant PRL-1 (Homo sapiens, UniProt Q93096); assay: In vitro phosphatase assay (DiFMUP hydrolysis), PRL-1; note: test concentration or dose not given here
T3 construct: 6xHis (N, cleaved yes); made in house; host or cells: E. coli One Shot BL21 Star
T3 sequence (Q93096 1-173): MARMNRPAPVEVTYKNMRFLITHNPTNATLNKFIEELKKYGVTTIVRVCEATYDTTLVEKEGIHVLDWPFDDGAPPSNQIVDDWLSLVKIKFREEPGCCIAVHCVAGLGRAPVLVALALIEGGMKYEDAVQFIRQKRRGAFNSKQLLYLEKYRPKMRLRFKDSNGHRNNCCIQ

T2 sequence (O75365 whole entry): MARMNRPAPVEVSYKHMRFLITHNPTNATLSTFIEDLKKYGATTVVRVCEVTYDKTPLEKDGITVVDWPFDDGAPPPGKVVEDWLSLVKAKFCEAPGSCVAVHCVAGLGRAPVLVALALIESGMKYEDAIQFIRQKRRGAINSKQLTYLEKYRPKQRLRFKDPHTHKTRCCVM

Row | Structure (SMILES) | % Phosphatase Activity (compared to DMSO) PRL-2 [1] [%] | % Phosphatase Activity (compared to DMSO) PRL-3 [2] [%] | % Phosphatase Activity (compared to DMSO) PRL-1 [3] [%]
1 | COc1cccc2c1C(=O)c1c(O)c3c(c(O)c1C2=O)C[C@@](O)(C(=O)CO)C[C@@H]3O[C@H]1C[C@H](N)[C@@H](O)[C@H](C)O1 [Epirubicin HCl] | 90 | 58 | 78
2 | COC(=O)[C@@H]1CC2=CC(=O)CC[C@]2(C)[C@@]23O[C@@H]2C[C@@]2(C)[C@@H](CC[C@@]24CCC(=O)O4)[C@H]13 [Eplerenone] | 112 | 81 | 105
3 | C/C(=C\c1csc(C)n1)[C@@H]1C[C@@H]2O[C@]2(C)CCC[C@H](C)[C@H](O)[C@@H](C)C(=O)C(C)(C)[C@@H](O)CC(=O)O1 [Epothilone B (EPO906, Patupilone)] | 93 | 80 | 98
4 | CCCCc1ncc(/C=C(\Cc2cccs2)C(=O)O)n1Cc1ccc(C(=O)O)cc1 [Eprosartan Mesylate] | 100 | 72 | 89
5 | O=C(O)CSCC(=O)NC1CCSC1=O (stereo not drawn) [Erdosteine] | 89 | 95 | 93
6 | C#Cc1cccc(Nc2ncnc3cc(OCCOC)c(OCCOC)cc23)c1.Cl [Erlotinib HCl (OSI-744)] | 128 | 87 | 110
7 | C#Cc1cccc(Nc2ncnc3cc(OCCOC)c(OCCOC)cc23)c1 [Erlotinib] | 110 | 123 | 113
8 | CCOC(=O)CCC(=O)O[C@H]1[C@H](O[C@@H]2[C@@H](C)[C@H](O[C@H]3C[C@@](C)(OC)[C@@H](O)[C@H](C)O3)[C@@H](C)C(=O)O[C@H](CC)[C@@](C)(O)[C@H](O)[C@@H](C)C(=O)[C@H](C)C[C@@]2(C)O)O[C@H](C)C[C@@H]1N(C)C [Erythromycin Ethylsuccinate] | 82 | 71 | 85
9 | CC[C@H]1OC(=O)[C@H](C)[C@@H](O[C@H]2C[C@@](C)(OC)[C@@H](O)[C@H](C)O2)[C@H](C)[C@@H](O[C@@H]2O[C@H](C)C[C@H](N(C)C)[C@H]2O)[C@](C)(O)C[C@@H](C)C(=O)[C@H](C)[C@@H](O)[C@]1(C)O [Erythromycin] | 93 | 79 | 91
10 | CN(C)CCC[C@@]1(c2ccc(F)cc2)OCc2cc(C#N)ccc21 [Escitalopram Oxalate] | 117 | 67 | 89
11 | CC(=O)O[C@H]1Cc2ccccc2N(C(N)=O)c2ccccc21 [Eslicarbazepine Acetate] | 117 | 75 | 94
12 | COC(=O)CCc1ccc(OCC(O)CNC(C)C)cc1 (stereo not drawn) [Esmolol HCl] | 101 | 73 | 93
13 | COc1ccc2[n-]c([S+]([O-])Cc3ncc(C)c(OC)c3C)nc2c1.COc1ccc2[n-]c([S+]([O-])Cc3ncc(C)c(OC)c3C)nc2c1.[Mg+2] (stereo not drawn) [Esomeprazole Magnesium] | 88 | 93 | 84
14 | COc1ccc2[n-]c([S@@+]([O-])Cc3ncc(C)c(OC)c3C)nc2c1.[Na+] [Esomeprazole Sodium] | 124 | 92 | 112
15 | C[C@]12CC[C@@H]3c4ccc(OC(=O)c5ccccc5)cc4CC[C@H]3[C@@H]1CC[C@@H]2O [Estradiol Benzoate] | 117 | 91 | 110
16 | C[C@]12CC[C@@H]3c4ccc(O)cc4CC[C@H]3[C@@H]1CC[C@@H]2OC(=O)CCC1CCCC1 [Estradiol Cypionate] | 109 | 74 | 96

Reference: publication PMC8119466, “A screen of FDA-approved drugs identifies inhibitors of protein tyrosine phosphatase 4A3 (PTP4A3 or PRL-3)” (Scientific Reports, 2021)
